Experimental data reported in publication PMC11003488 (Journal of Enzyme Inhibition and Medicinal Chemistry, 2023).

Tests used:
CCRF-CEM = assay: NCI-60 SRB growth inhibition, one-dose and five-dose; format: cell-based; conditions: Homo sapiens; for inhibition at 10 µM: read-out: percent growth inhibition
HL-60(TB) = assay: cells; format: cell-based; conditions: Homo sapiens; for inhibition at 10 µM: HL-60, read-out: percent growth inhibition
RPMI-8226 = assay: NCI-60 SRB growth inhibition, one-dose and five-dose; format: cell-based; conditions: Homo sapiens; for inhibition at 10 µM: RPMI-8226, read-out: percent growth inhibition
SR = assay: as above; format: cell-based; conditions: Homo sapiens; for inhibition at 10 µM: read-out: percent growth inhibition
A549/ATCC = assay: as above; format: cell-based; conditions: Homo sapiens; for inhibition at 10 µM: A549, read-out: percent growth inhibition
HOP-92 = assay: as above; format: cell-based; conditions: Homo sapiens; for inhibition at 10 µM: HOP-92, read-out: percent growth inhibition
NCI-H226 = assay: as above; format: cell-based; conditions: Homo sapiens; for inhibition at 10 µM: NCI-H226, read-out: percent growth inhibition
NCI-H460 = assay: as above; format: cell-based; conditions: Homo sapiens; for inhibition at 10 µM: NCI-H460, read-out: percent growth inhibition
COLO 205 = assay: as above; format: cell-based; conditions: Homo sapiens; for inhibition at 10 µM: COLO 205, read-out: percent growth inhibition
HCT-116 = assay: as above; format: cell-based; conditions: Homo sapiens; for inhibition at 10 µM: HCT-116, read-out: percent growth inhibition
HCT-15 = assay: as above; format: cell-based; conditions: Homo sapiens; for inhibition at 10 µM: HCT-15, read-out: percent growth inhibition
HT29 = assay: as above; format: cell-based; conditions: Homo sapiens; for inhibition at 10 µM: HT-29, read-out: percent growth inhibition
KM12 = assay: as above; format: cell-based; conditions: Homo sapiens; for inhibition at 10 µM: KM12, read-out: percent growth inhibition
SW-620 = assay: as above; format: cell-based; conditions: Homo sapiens; for inhibition at 10 µM: SW-620, read-out: percent growth inhibition
SF-268 = assay: as above; format: cell-based; conditions: Homo sapiens; for inhibition at 10 µM: SF-268, read-out: percent growth inhibition
SNB-19 = assay: as above; format: cell-based; conditions: Homo sapiens; for inhibition at 10 µM: SNB-19, read-out: percent growth inhibition
SNB-75 = assay: as above; format: cell-based; conditions: Homo sapiens
U251 = assay: as above; format: cell-based; conditions: Homo sapiens; for inhibition at 10 µM: U-251, read-out: percent growth inhibition
MALME-3M = assay: as above; format: cell-based; conditions: Homo sapiens; for inhibition at 10 µM: read-out: percent growth inhibition
M14 = assay: as above; format: cell-based; conditions: Homo sapiens; for inhibition at 10 µM: M14, read-out: percent growth inhibition
MDA-MB-435 = assay: as above; format: cell-based; conditions: Homo sapiens; for inhibition at 10 µM: MDA-MB-435, read-out: percent growth inhibition
SK-MEL-5 = assay: as above; format: cell-based; conditions: Homo sapiens; for inhibition at 10 µM: SK-MEL-5, read-out: percent growth inhibition
UACC-62 = assay: as above; format: cell-based; conditions: Homo sapiens; for inhibition at 10 µM: UACC-62, read-out: percent growth inhibition
IGROV1 = assay: as above; format: cell-based; conditions: Homo sapiens; for inhibition at 10 µM: IGROV-1, read-out: percent growth inhibition
OVCAR-3 = assay: as above; format: cell-based; conditions: Homo sapiens; for inhibition at 10 µM: OVCAR-3, read-out: percent growth inhibition
OVCAR-4 = assay: as above; format: cell-based; conditions: Homo sapiens; for inhibition at 10 µM: OVCAR-4, read-out: percent growth inhibition
OVCAR-5 = assay: as above; format: cell-based; conditions: Homo sapiens; for inhibition at 10 µM: OVCAR-5, read-out: percent growth inhibition
OVCAR-8 = assay: as above; format: cell-based; conditions: Homo sapiens; for inhibition at 10 µM: OVCAR-8, read-out: percent growth inhibition
NCI/ADR-RES = assay: as above; format: cell-based; conditions: Homo sapiens
786-0 = assay: as above; format: cell-based; conditions: Homo sapiens; for inhibition at 10 µM: 786-0, read-out: percent growth inhibition
A498 = assay: as above; format: cell-based; conditions: Homo sapiens; for inhibition at 10 µM: A498, read-out: percent growth inhibition
ACHN = assay: as above; format: cell-based; conditions: Homo sapiens; for inhibition at 10 µM: read-out: percent growth inhibition
CAKI-1 = assay: as above; format: cell-based; conditions: Homo sapiens; for inhibition at 10 µM: CAKI-1, read-out: percent growth inhibition
SN12C = assay: as above; format: cell-based; conditions: Homo sapiens; for inhibition at 10 µM: read-out: percent growth inhibition
TK-10 = assay: as above; format: cell-based; conditions: Homo sapiens; for inhibition at 10 µM: TK-10, read-out: percent growth inhibition
DU-145 = assay: as above; format: cell-based; conditions: Homo sapiens; for inhibition at 10 µM: DU-145, read-out: percent growth inhibition
MCF7 = assay: as above; format: cell-based; conditions: Homo sapiens; for inhibition at 10 µM: MCF7, read-out: percent growth inhibition
HS 578 T = assay: as above; format: cell-based; conditions: Homo sapiens; for inhibition at 10 µM: read-out: percent growth inhibition
BT-549 = assay: as above; format: cell-based; conditions: Homo sapiens; for inhibition at 10 µM: BT-549, read-out: percent growth inhibition
T-47D = assay: as above; format: cell-based; conditions: Homo sapiens, T47D; for inhibition at 10 µM: read-out: percent growth inhibition
MDA-MB-468 = assay: as above; format: cell-based; conditions: Homo sapiens; for inhibition at 10 µM: MDA-MB-468, read-out: percent growth inhibition
[1] = tested on: NCI 60-cell line panel (full panel); assay: NCI-60 SRB growth inhibition, full panel mean / MG-MID; format: cell-based, human; conditions: for Full panel Mean GI %: mean over NCI-60 panel, single dose 10 µM

With `CC(=O)Nc1ccc(/C=C/C(=O)c2cccc(NCc3ccc(C)cc3)c2)cc1` [Compound 5f, (E)-N-(4–(3-(3-((4-methylbenzyl)amino)phenyl)-3-oxoprop-1-en-1-yl)phenyl)acetamide] the GI50 (CCRF-CEM) was 2.84 µM, the inhibition at 10 µM (CCRF-CEM) was 87.2% and the GI50 (HL-60(TB); HL-60) was 3.99 µM. For the same molecule, the inhibition at 10 µM (HL-60(TB)) was 52%, the GI50 (RPMI-8226; RPMI-8226) was 2.29 µM and the inhibition at 10 µM (RPMI-8226) was 105%. For the same molecule, the GI50 (SR) was 1.51 µM, the inhibition at 10 µM (SR) was 96.5% and the GI50 (A549/ATCC; A549) was 24.6 µM. It also gave an inhibition at 10 µM (A549/ATCC) of 30.5%, a GI50 (HOP-92; HOP-92) of 15.5 µM and an inhibition at 10 µM (HOP-92) of 8.52%. It also gave a GI50 (NCI-H226; NCI-H226) of 13.7 µM, an inhibition at 10 µM (NCI-H226) of 21.8% and a GI50 (NCI-H460; NCI-H460) of 4.18 µM. For the same molecule, the inhibition at 10 µM (NCI-H460) was 68%, the GI50 (COLO 205; COLO 205) was 16 µM and the inhibition at 10 µM (COLO 205) was 53.7%. It also gave a GI50 (HCT-116; HCT-116, HCT-116, five-dose screening) of 1.91 µM, an inhibition at 10 µM (HCT-116) of 179% and a GI50 (HCT-15; HCT-15) of 3.31 µM. The inhibition at 10 µM (HCT-15) was 113%, the GI50 (HT29; HT-29) was 10.7 µM and the inhibition at 10 µM (HT29) was 128%. It also gave a GI50 (KM12; KM12) of 7.04 µM, an inhibition at 10 µM (KM12) of 136% and a GI50 (SW-620; SW-620) of 2.17 µM. For the same molecule, the inhibition at 10 µM (SW-620) was 156%, the GI50 (SF-268; SF-268) was 4.58 µM and the inhibition at 10 µM (SF-268) was 45.8%. For the same molecule, the GI50 (SNB-19; SNB-19) was 12.4 µM, the inhibition at 10 µM (SNB-19) was 31.4% and the GI50 (SNB-75; SNB-75) was 12.5 µM. It also gave an inhibition at 10 µM (SNB-75; SNB-75, read-out: percent growth inhibition) of 32.3%, a GI50 (U251; U-251) of 3.89 µM and an inhibition at 10 µM (U251) of 127%. It also gave a GI50 (MALME-3M) of 12.3 µM, an inhibition at 10 µM (MALME-3M) of 31.1% and a GI50 (M14; M14) of 14 µM. It also gave an inhibition at 10 µM (M14) of 54.7%, a GI50 (MDA-MB-435; MDA-MB-435) of 6.21 µM and an inhibition at 10 µM (MDA-MB-435) of 35.7%. For the same molecule, the GI50 (SK-MEL-5; SK-MEL-5) was 7.24 µM, the inhibition at 10 µM (SK-MEL-5) was 49.6% and the GI50 (UACC-62; UACC-62) was 10.8 µM. The inhibition at 10 µM (UACC-62) was 48.7%, the GI50 (IGROV1; IGROV-1) was 12.9 µM and the inhibition at 10 µM (IGROV1) was 39%. The GI50 (OVCAR-3; OVCAR-3) was 3.19 µM, the inhibition at 10 µM (OVCAR-3) was 78% and the GI50 (OVCAR-4; OVCAR-4) was 6.18 µM. It also gave an inhibition at 10 µM (OVCAR-4) of 56.1%, a GI50 (OVCAR-5; OVCAR-5) of 18.5 µM and an inhibition at 10 µM (OVCAR-5) of 29.2%. For the same molecule, the GI50 (OVCAR-8; OVCAR-8) was 2.98 µM, the inhibition at 10 µM (OVCAR-8) was 88.1% and the GI50 (NCI/ADR-RES) was 3.72 µM. The GI50 (786-0; 786-0) was 10.3 µM, the inhibition at 10 µM (786-0) was 60.4% and the GI50 (A498; A498) was 17.9 µM. The inhibition at 10 µM (A498) was -0.63%, the GI50 (ACHN) was 13.2 µM and the inhibition at 10 µM (ACHN) was 65%. The GI50 (CAKI-1; CAKI-1) was 10.8 µM, the inhibition at 10 µM (CAKI-1) was 23.2% and the GI50 (SN12C) was 7.76 µM. For the same molecule, the inhibition at 10 µM (SN12C) was 88%, the GI50 (TK-10; TK-10) was 13.8 µM and the inhibition at 10 µM (TK-10) was -10.1%. For the same molecule, the GI50 (DU-145; DU-145) was 7.44 µM, the inhibition at 10 µM (DU-145) was 62.1% and the GI50 (MCF7; MCF7) was 3.37 µM. The inhibition at 10 µM (MCF7) was 90.5%, the GI50 (HS 578 T) was 15.4 µM and the inhibition at 10 µM (HS 578 T) was 47%. For the same molecule, the GI50 (BT-549; BT-549) was 5.26 µM, the inhibition at 10 µM (BT-549) was 66% and the GI50 (T-47D) was 10.2 µM. For the same molecule, the inhibition at 10 µM (T-47D) was 86.5%, the GI50 (MDA-MB-468; MDA-MB-468) was 4.23 µM and the inhibition at 10 µM (MDA-MB-468) was 85.6%. For the same molecule, the GI50 ([1]; Homo sapiens, 60 cell, read-out: Full panel GI50 mean) was 9.25 µM and the “Full panel Mean GI %” value [1] was 61.75%.

For `O=C(/C=C/c1c[nH]cn1)c1cccc(NCc2ccc(CO)cc2)c1` [Compound 5m, (E)-1–(3-((4-(hydroxymethyl)benzyl)amino)phenyl)-3-(1H-imidazol-4-yl)prop-2-en-1-one], the inhibition at 10 µM (CCRF-CEM) was 45.6%, the inhibition at 10 µM (HL-60(TB)) was 65.9% and the inhibition at 10 µM (RPMI-8226) was 63.3%. The inhibition at 10 µM (SR) was 92.9%, the inhibition at 10 µM (A549/ATCC) was 14.1% and the inhibition at 10 µM (HOP-92) was 22.2%. It also gave an inhibition at 10 µM (NCI-H226) of 14.6%, an inhibition at 10 µM (NCI-H460) of 6.83% and an inhibition at 10 µM (COLO 205) of -0.06%. The inhibition at 10 µM (HCT-116) was 36.5%, the inhibition at 10 µM (HCT-15) was 21.5% and the inhibition at 10 µM (HT29) was 24.9%. It also gave an inhibition at 10 µM (KM12) of 9.57%, an inhibition at 10 µM (SW-620) of 23.8% and an inhibition at 10 µM (SF-268) of 8.96%. The inhibition at 10 µM (SNB-19) was 16.8%, the inhibition at 10 µM (U251) was 56% and the inhibition at 10 µM (MALME-3M) was 23.1%. For the same molecule, the inhibition at 10 µM (M14) was 15%, the inhibition at 10 µM (MDA-MB-435) was 8.36% and the inhibition at 10 µM (SK-MEL-5) was 21.7%. It also gave an inhibition at 10 µM (UACC-62) of 30.5%, an inhibition at 10 µM (IGROV1) of 9.93% and an inhibition at 10 µM (OVCAR-3) of 5.3%. For the same molecule, the inhibition at 10 µM (OVCAR-4) was 22%, the inhibition at 10 µM (OVCAR-5) was -1.46% and the inhibition at 10 µM (OVCAR-8) was 15.4%. It also gave an inhibition at 10 µM (NCI/ADR-RES; read-out: percent growth inhibition) of 6.75%, an inhibition at 10 µM (786-0) of 11.7% and an inhibition at 10 µM (A498) of 2.28%. It also gave an inhibition at 10 µM (ACHN) of 16.6%, an inhibition at 10 µM (CAKI-1) of 8.35% and an inhibition at 10 µM (SN12C) of 19.9%. The inhibition at 10 µM (TK-10) was 6.96%, the inhibition at 10 µM (DU-145) was 6.04% and the inhibition at 10 µM (MCF7) was 66%. The inhibition at 10 µM (HS 578 T) was 4.31%, the inhibition at 10 µM (BT-549) was 34% and the inhibition at 10 µM (T-47D) was 47.8%. The inhibition at 10 µM (MDA-MB-468) was 80.5% and the “Full panel Mean GI %” value [1] was 25.19%.
